This is an account of results in ChEMBL document CHEMBL4831522, “Structure-Based Optimization of Quinazolines as Cruzain and TbrCATL Inhibitors” (J Med Chem, 2021).

Data set [1] deals with Cruzipain (Trypanosoma cruzi) (UniProt P25779). As to the kind of experiment: Inhibition of recombinant Trypanosoma cruzi cruzain using Z-FR-AMC as substrate and compound-enzyme complex preincubated for 5 mins in presence of 0.001% Triton-X100 by fluorometry relative to control.
For data set [2] the target is unchanged. As to the kind of experiment: Inhibition of recombinant Trypanosoma cruzi cruzain using Z-FR-AMC as substrate when compound was preincubated for 5 mins in presence of BSA and 0.001% Triton-X100 followed by further incubation for 5 mins in presence of enzyme relative to control. The conditions noted are these: time 10.0 min.
The target of data set [3] is T1, Cruzipain (Trypanosoma cruzi, UniProt P25779). As to the kind of experiment: Inhibition of recombinant Trypanosoma cruzi cruzain using Z-FR-AMC as substrate preincubated for 10 mins followed by substrate addition by fluorometry.
T1 sequence (P25779 whole entry): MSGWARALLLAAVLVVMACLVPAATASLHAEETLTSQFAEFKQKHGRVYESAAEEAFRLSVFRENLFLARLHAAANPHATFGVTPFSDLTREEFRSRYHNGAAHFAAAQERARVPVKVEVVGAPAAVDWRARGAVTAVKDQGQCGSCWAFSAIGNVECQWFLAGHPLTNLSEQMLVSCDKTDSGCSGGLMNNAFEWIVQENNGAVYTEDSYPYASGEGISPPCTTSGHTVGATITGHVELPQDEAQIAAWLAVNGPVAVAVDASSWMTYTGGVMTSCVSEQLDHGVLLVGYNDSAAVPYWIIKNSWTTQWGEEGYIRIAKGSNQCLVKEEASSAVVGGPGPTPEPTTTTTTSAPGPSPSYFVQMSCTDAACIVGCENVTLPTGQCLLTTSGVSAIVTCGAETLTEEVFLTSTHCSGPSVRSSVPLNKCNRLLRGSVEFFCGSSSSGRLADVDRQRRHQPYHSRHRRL
The target in data set [4] is Cruzipain (Trypanosoma cruzi) (UniProt P25779). As to the kind of experiment: Inhibition of recombinant Trypanosoma cruzi cruzain at 50 uM using Z-FR-AMC as substrate preincubated for 10 mins followed by substrate addition by fluorometry relative to control.
Data set [5] relates to Trypanosoma brucei brucei. As to the kind of experiment: Antitrypanosomal activity against Trypanosoma brucei brucei Lister 427 bloodstream forms measured after 72 hrs by SYBR green dye based assay. Type of data set: functional, organism-based. The conditions noted are these: Lister 427, 72 h.
Data set [6] in a line: Selectivity index, ratio of CC50 for cytotoxicity against mouse C2C12 cells to EC50 for trypanocidal activity against Trypanosoma cruzi […] infected in mouse C2C12 cells. The class given is toxicity, cell-based. The conditions noted are these: read-out: Selectivity Index.
In data set [7] the target is Cruzipain (Trypanosoma cruzi) (UniProt P25779). Nature of the data set: Inhibition of recombinant Trypanosoma cruzi cruzain using Z-FR-AMC as substrate and compound-enzyme complex preincubated for 5 mins in presence of 0.1% Triton-X100 by fluorometry relative to control.
Data set [8] is described as follows: Cytotoxicity against mouse C2C12 cells. The class given is cell-based.
For the next data set, the system named is Trypanosoma cruzi. Nature of the data set: Trypanocidal activity against amastigotes form of Trypanosoma cruzi CA-I/72 infected in mouse C2C12 cells assessed as inhibition of parasite replication incubated for 48 hrs by DAPI staining based microscopic analysis. The class given is functional, organism-based. The conditions noted are these: CA-I/72, C2C12, 48 h.

Data set [9] concerns the target Rhodesain (Trypanosoma brucei rhodesiense) (UniProt Q95PM0). As to the kind of experiment: Inhibition of recombinant Trypanosoma brucei rhodesiense MVAT4 rhodesain expressed in Pichia pastoris at 50 uM using Z-FR-AMC as substrate preincubated for 10 mins followed by substrate addition by fluorometry relative to control.
Data set [10] deals with Cruzipain (Trypanosoma cruzi) (UniProt P25779). As to the kind of experiment: Inhibition of recombinant Trypanosoma cruzi cruzain using Z-FR-AMC as substrate and compound-enzyme complex preincubated for 5 mins in presence of 0.01% Triton-X100 by fluorometry relative to control.
Data set [11] concerns the target Rhodesain (Trypanosoma brucei rhodesiense) (UniProt Q95PM0). Nature of the data set: Inhibition of recombinant Trypanosoma brucei rhodesiense MVAT4 rhodesain expressed in Pichia pastoris at 100 uM using Z-FR-AMC as substrate by fluorometry relative to control.
The target is the same in data set [12]. Nature of the data set: Inhibition of recombinant Trypanosoma brucei rhodesiense MVAT4 rhodesain expressed in Pichia pastoris at 20 uM using Z-FR-AMC as substrate by fluorometry relative to control.
The target in data set [13] is Cruzipain (Trypanosoma cruzi) (UniProt P25779). Nature of the data set: Inhibition of recombinant Trypanosoma cruzi cruzain at 20 uM using Z-FR-AMC as substrate by fluorometry relative to control.
The target in data set [14] is T1, Cruzipain. Nature of the data set: Inhibition of recombinant Trypanosoma cruzi cruzain using Z-FR-AMC as substrate by fluorometry.
The target in data set [15] is Rhodesain (Trypanosoma brucei rhodesiense) (UniProt Q95PM0). As to the kind of experiment: Inhibition of recombinant Trypanosoma brucei rhodesiense MVAT4 rhodesain expressed in Pichia pastoris at 1 uM using Z-FR-AMC as substrate by fluorometry relative to control.
Chain of Rhodesain (Trypanosoma brucei rhodesiense) (Q95PM0 1-450): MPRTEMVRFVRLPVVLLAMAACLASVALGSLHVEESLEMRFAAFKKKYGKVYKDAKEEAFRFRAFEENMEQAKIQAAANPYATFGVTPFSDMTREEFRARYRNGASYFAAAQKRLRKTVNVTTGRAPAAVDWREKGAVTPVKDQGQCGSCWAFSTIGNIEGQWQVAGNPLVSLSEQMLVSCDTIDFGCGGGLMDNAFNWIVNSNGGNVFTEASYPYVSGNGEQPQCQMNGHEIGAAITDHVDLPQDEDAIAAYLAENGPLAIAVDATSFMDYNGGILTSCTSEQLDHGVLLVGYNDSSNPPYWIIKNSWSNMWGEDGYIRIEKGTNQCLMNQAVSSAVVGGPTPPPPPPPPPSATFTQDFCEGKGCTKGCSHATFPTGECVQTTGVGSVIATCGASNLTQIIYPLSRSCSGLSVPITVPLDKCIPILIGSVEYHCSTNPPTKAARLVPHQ
Another data set concerns the target Rhodesain (Trypanosoma brucei rhodesiense, UniProt Q95PM0). As to the kind of experiment: Inhibition of recombinant Trypanosoma brucei rhodesiense MVAT4 rhodesain expressed in Pichia pastoris using Z-FR-AMC as substrate by fluorometry.
Data set [16] deals with Cruzipain (Trypanosoma cruzi) (UniProt P25779). As to the kind of experiment: Time dependent inhibition of recombinant Trypanosoma cruzi cruzain at 100 uM using Z-FR-AMC as substrate by fluorometry. The following applies: time 10.0 min.
For data set [17] the target is unchanged. Nature of the data set: Inhibition of recombinant Trypanosoma cruzi cruzain at 100 uM using Z-FR-AMC as substrate preincubated for 10 mins followed by substrate addition by fluorometry relative to control.
Data set [18] has as its target Rhodesain (Trypanosoma brucei rhodesiense) (UniProt Q95PM0). Nature of the data set: Time dependent inhibition of recombinant Trypanosoma brucei rhodesiense MVAT4 rhodesain expressed in Pichia pastoris at 100 uM using Z-FR-AMC as substrate by fluorometry. The following applies: time 10.0 min.
Data set [19] deals with Cruzipain (Trypanosoma cruzi) (UniProt P25779). As to the kind of experiment: Inhibition of recombinant Trypanosoma cruzi cruzain at 100 uM using Z-FR-AMC as substrate by fluorometry relative to control.
The target in data set [20] is T1, Cruzipain. As to the kind of experiment: Competitive inhibition of Trypanosoma cruzi cruzain assessed as inhibition constant using varying levels of Z-FR-AMC as substrate by Michaelis-Menten analysis.
Data set [21] concerns the target Cruzipain (Trypanosoma cruzi) (UniProt P25779). Nature of the data set: Competitive inhibition of Trypanosoma cruzi cruzain assessed as increase in apparent Kapp up to 25 uM using varying levels of Z-FR-AMC as substrate by Michaelis-Menten analysis. The following applies: dose microM <=25.
Data set [22] has the same target. As to the kind of experiment: Competitive inhibition of Trypanosoma cruzi cruzain assessed as unchanged initial velocity up to 25 uM using varying levels of Z-FR-AMC as substrate by Michaelis-Menten analysis. The following applies: dose microM <=25.

Active and inactive are the calls of the source. The calls are words filed in the database; no cut-off is given here.

Chain of Cruzipain (Trypanosoma cruzi) (P25779 123-467 limits assumed): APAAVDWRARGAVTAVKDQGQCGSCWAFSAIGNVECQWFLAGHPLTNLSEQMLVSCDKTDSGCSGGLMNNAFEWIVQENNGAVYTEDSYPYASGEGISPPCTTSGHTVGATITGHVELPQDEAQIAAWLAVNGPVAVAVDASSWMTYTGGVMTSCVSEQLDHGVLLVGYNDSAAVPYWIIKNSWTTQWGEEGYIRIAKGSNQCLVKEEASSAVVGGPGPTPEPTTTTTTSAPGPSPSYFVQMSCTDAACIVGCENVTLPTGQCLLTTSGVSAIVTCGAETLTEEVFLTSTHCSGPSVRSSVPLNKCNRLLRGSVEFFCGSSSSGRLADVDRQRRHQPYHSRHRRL
Chain of Rhodesain (Q95PM0 whole entry): as the sequence (Q95PM0 1-450) above

For the molecule `c1ccc(Nc2nc(Nc3ccccc3)c3ccccc3n2)cc1`, the inhibition – broadly, the drop in the measured response relative to a control, in per cent – came to 71% in [1]; 62% in data set [2]; 30% in data set [4]; 81% in data set [7]; 14% in data set [9]; 84% in data set [10]. In addition, at Cruzipain [3], the half-inhibitory concentration (IC50) – broadly, the midpoint of a concentration-inhibition curve – stood at 14 µM. Further, the EC50 (commonly the concentration giving half of the maximal effect) in [5] stood at 16.3 µM; in the data set on Trypanosoma cruzi, 0.9 µM. In addition, the selectivity ratio in [6] was above 11. In addition, the CC50 (usually the concentration that lowers cell viability or growth by half) in [8] is above 10 µM.

Turning to `Clc1ccc(Nc2nccc(NCc3ccccc3)n2)cc1`, the inhibition in data set [11] was found to be 10%; in data set [12] it was 10%; in data set [13], 34%. Also, the concentration for a half-maximal effect (EC50) is 25 µM in [5] and 7 µM with Trypanosoma cruzi. Further, the selectivity ratio in data set [6] is above 1. In data set [8], this molecule showed a half-maximal cytotoxic concentration (CC50) above 10 µM.

With `CC(C)C[C@H](NC(=O)[C@@H]1O[C@H]1C(=O)O)C(=O)NCCCCN=C(N)N`, the IC50 on Cruzipain [14] was 0.028 µM; on Rhodesain, 0.0037 µM. The inhibition in data set [15] was 87%.

As to `COc1ccc(Nc2nc(NCc3ccccc3)c3ccccc3n2)cc1`, the inhibition in data set [1] amounted to 83%; in data set [2], 65%; in data set [7], 31%; in data set [17] it was 58%; in data set [10], 50%. Also, the 50% inhibitory concentration (IC50) on Cruzipain [3] turned out to be 52 µM. Further, the values for the EC50 (in data set [5]; with Trypanosoma cruzi) were 15.1 µM and 0.5 µM, respectively. Besides, in data set [6], the selectivity ratio came to 18. In addition, the TDI entry in data set [16] and in [18] was “Active” in each case. In [8], this molecule showed a CC50 of 9 µM.

In the case of `O=C(c1ccc(Nc2nc(NCc3ccccc3)c3ccccc3n2)cc1)N1CCOCC1`, the inhibition in [1] worked out at 45%; in data set [11], 7%; in data set [2] it was 46%; in [19], 99%; in [7], 49%; in [10] it was 53%. The IC50 on Cruzipain [14] was 7 µM; on Rhodesain, 22 µM. Moreover, the EC50 is above 50 µM in data set [5] and 0.8 µM in the data set with Trypanosoma cruzi. In data set [6], the selectivity ratio is above 12. For the same molecule, on Cruzipain [20], the Ki (commonly the equilibrium dissociation constant of an inhibitor or competing ligand from its target) worked out at 3.2 µM. Also, the inhibition result in [21] and in data set [22] was “Active” in each case. In [8], this molecule registered a half-maximal cytotoxic concentration (CC50) above 10 µM.
